Experiments:
cancer cell lines = assay: Cancer cell proliferation activity of representative nucleosides, CellTiterGlo 72 h (Example 7, Tables 8 and 9); type: cell-based; details: 72 h
Procedure, shortened: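 Percent viability was set against 0.1% DMSO (100%) and 10 μM staurosporine (0%), with signal from CellTiterGlo luminescence. Dose-response treatment began one day after seeding and lasted 72 h at 37° C under 5% or 10% CO2, with 0.1% final DMSO.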

human LINE-1 = assay: Human LINE-1 (L1) retrotransposition dual-luciferase reporter assay in HeLa cells; type: cell-based; details: Homo sapiens, HeLa, 72 h, read-out: Human LINE-1 IC50 (Human L1 activity inhibition)
Procedure, shortened: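 Compound dilution series (final DMSO 0.2%) added right after transfecting HeLa cells with the pYX017 L1 dual-luciferase reporter; 72 h culture at 37 °C, 5% CO2, triplicates. IC50 fitted by non-linear logistic regression to firefly-to-Renilla luminescence ratio (×10,000).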

IC50 (cancer cell lines; 72 h, 5637, bladder): 0.81 µM | IC50 (cancer cell lines; CLS439, bladder): > 50 µM | IC50 (cancer cell lines; HS729, muscle): > 50 µM | IC50 (cancer cell lines; J82, bladder): 1.16 µM | IC50 (cancer cell lines; JAR, placenta): 7.25 µM | IC50 (cancer cell lines; MT3, breast): 1.46 µM | IC50 (cancer cell lines; PC3, prostate): 6.33 µM | IC50 (cancer cell lines; RD, muscle): 4.22 µM | IC50 (cancer cell lines; T24, bladder): 3.76 µM | IC50 (cancer cell lines; Homo sapiens, 22Rv1, 72 h, 22RV1, prostate): 0.55 µM | IC50 (cancer cell lines; Homo sapiens, 786-0, 72 h, 786O, kidney): 3.54 µM | IC50 (cancer cell lines; Homo sapiens, A204, 72 h, A204, muscle): 9.82 µM | IC50 (cancer cell lines; Homo sapiens, A549, 72 h, A549, lung): 1.24 µM | IC50 (cancer cell lines; Homo sapiens, A673, 72 h, A673, bone): 1.96 µM | IC50 (cancer cell lines; Homo sapiens, A2780, 72 h, A2780, ovary): 4.18 µM | IC50 (cancer cell lines; Homo sapiens, A-375, 72 h, A375, skin): > 50 µM | IC50 (cancer cell lines; Homo sapiens, A-431, 72 h, A431, skin): 0.11 µM | IC50 (cancer cell lines; Homo sapiens, ACHN, kidney): 1.05 µM | IC50 (cancer cell lines; Homo sapiens, ASPC1, 72 h, ASPC1, pancreas): 2.58 µM | IC50 (cancer cell lines; Homo sapiens, BT-20, 72 h, BT20, breast): > 50 µM | IC50 (cancer cell lines; Homo sapiens, BXPC-3, 72 h, BXPC3, pancreas): 0.23 µM | IC50 (cancer cell lines; Homo sapiens, C-33-A, C33A, endometrial): 4.56 µM | IC50 (cancer cell lines; Homo sapiens, CAKI-1, 72 h, CAKI1, kidney): > 50 µM | IC50 (cancer cell lines; Homo sapiens, COLO 205, 72 h, COLO205, colon): 0.91 µM | IC50 (cancer cell lines; Homo sapiens, COLO-678, 72 h, COLO678, colon): > 50 µM | IC50 (cancer cell lines; Homo sapiens, Ca-Ski, CASKI, endometrial): 11.6 µM | IC50 (cancer cell lines; Homo sapiens, Caco-2, 72 h, CACO2, colon): > 50 µM | IC50 (cancer cell lines; Homo sapiens, Calu-6, 72 h, CALU6, lung): > 50 µM | IC50 (cancer cell lines; Homo sapiens, DLD-1, 72 h, DLD1, colon): 4.35 µM | IC50 (cancer cell lines; Homo sapiens, DU-145, 72 h, DU145, prostate): 2.42 µM | IC50 (cancer cell lines; Homo sapiens, EFO-21, 72 h, EFO21, ovary): 2.41 µM | IC50 (cancer cell lines; Homo sapiens, EJ-28, 72 h, EJ28, bladder): 2.21 µM | IC50 (cancer cell lines; Homo sapiens, Granta-519, 72 h, GRANTA-519, hematological): 3.24 µM | IC50 (cancer cell lines; Homo sapiens, HCT-15, 72 h, HCT15, colon): 4.08 µM | IC50 (cancer cell lines; Homo sapiens, HCT-116, 72 h, HCT116, colon): > 50 µM | IC50 (cancer cell lines; Homo sapiens, HEK293, 72 h, HEK293, kidney): 7.63 µM | IC50 (cancer cell lines; Homo sapiens, HL-60, 72 h, HL-60, hematological): 4.04 µM | IC50 (cancer cell lines; Homo sapiens, HT-29, 72 h, HT29, colon): 1.47 µM | IC50 (cancer cell lines; Homo sapiens, HT-1080, 72 h, HT1080, connective tissue): 2.88 µM | IC50 (cancer cell lines; Homo sapiens, HeLa, endometrial): > 50 µM | IC50 (cancer cell lines; Homo sapiens, HepG2, 72 h, HEPG2, liver): 1.6 µM | IC50 (cancer cell lines; Homo sapiens, Hs-578T, HS578T, breast): > 50 µM | IC50 (cancer cell lines; Homo sapiens, IGROV-1, 72 h, IGROV1, ovary): 5.01 µM | IC50 (cancer cell lines; Homo sapiens, IMR-90, 72 h, IMR90, lung): > 50 µM | IC50 (cancer cell lines; Homo sapiens, JEG-3, 72 h, JEG3, placenta): 0.99 µM | IC50 (cancer cell lines; Homo sapiens, JIMT-1, 72 h, JIMT1, breast): 4.47 µM | IC50 (cancer cell lines; Homo sapiens, K562, 72 h, K-562, hematological): 4.38 µM | IC50 (cancer cell lines; Homo sapiens, Kasumi 1, 72 h, KASUMI-1, hematological): > 50 µM | IC50 (cancer cell lines; Homo sapiens, L-363, 72 h, L-363, hematological): 1.96 µM | IC50 (cancer cell lines; Homo sapiens, LoVo, colon): 1.62 µM | IC50 (cancer cell lines; Homo sapiens, MCF7, 72 h, MCF7, breast): 1.19 µM | IC50 (cancer cell lines; Homo sapiens, MDA-MB-231, 72 h, MDAMB231, breast): > 50 µM | IC50 (cancer cell lines; Homo sapiens, MDA-MB-435, 72 h, MDAMB435, skin): 4.39 µM | IC50 (cancer cell lines; Homo sapiens, MDA-MB-436, 72 h, MDAMB436, breast): 1.37 µM | IC50 (cancer cell lines; Homo sapiens, MDA-MB-468, 72 h, MDAMB468, breast): > 50 µM | IC50 (cancer cell lines; Homo sapiens, MG-63, 72 h, MG63, bone): 2.44 µM | IC50 (cancer cell lines; Homo sapiens, MHH-ES-1, 72 h, MHHES1, bone): 1.53 µM | IC50 (cancer cell lines; Homo sapiens, MIA PaCa-2, 72 h, MIAPACA2, pancreas): 3.75 µM | IC50 (cancer cell lines; Homo sapiens, MINO, hematological): 3.74 µM | IC50 (cancer cell lines; Homo sapiens, MV4-11, 72 h, MV4-11, hematological): 0.39 µM | IC50 (cancer cell lines; Homo sapiens, NCI-H23, 72 h, NCI-H23, lung): 2.42 µM | IC50 (cancer cell lines; Homo sapiens, NCI-H82, 72 h, NCIH82, lung): 2.35 µM | IC50 (cancer cell lines; Homo sapiens, NCI-H292, 72 h, NCIH292, lung): > 50 µM | IC50 (cancer cell lines; Homo sapiens, NCI-H460, 72 h, NCIH460, ung): 1.06 µM | IC50 (cancer cell lines; Homo sapiens, OVCAR-3, 72 h, OVCAR3, ovary): 5.6 µM | IC50 (cancer cell lines; Homo sapiens, OVCAR-4, 72 h, OVCAR4, ovary): > 50 µM | IC50 (cancer cell lines; Homo sapiens, PANC-1, 72 h, PANC1, pancreas): 6.4 µM | IC50 (cancer cell lines; Homo sapiens, PLC-PRF-5, 72 h, PLCPRF5, liver): 3.24 µM | IC50 (cancer cell lines; Homo sapiens, Panc1005, 72 h, PANC1005, pancreas): 16.4 µM | IC50 (cancer cell lines; Homo sapiens, Ramos, hematological): 5.3 µM | IC50 (cancer cell lines; Homo sapiens, SAOS-2, 72 h, SAOS2, bone): 4.72 µM | IC50 (cancer cell lines; Homo sapiens, SF-268, 72 h, SF268, brain): 1.65 µM | IC50 (cancer cell lines; Homo sapiens, SF-295, 72 h, SF295, brain): 4.49 µM | IC50 (cancer cell lines; Homo sapiens, SK-BR-3, 72 h, SKBR3, breast): 0.12 µM | IC50 (cancer cell lines; Homo sapiens, SK-HEP1, 72 h, SKHEP1, liver): 1.29 µM | IC50 (cancer cell lines; Homo sapiens, SK-LMS-1, 72 h, SKLMS1, uterus): 5.61 µM | IC50 (cancer cell lines; Homo sapiens, SK-MEL-5, 72 h, SKMEL5, skin): 5.52 µM | IC50 (cancer cell lines; Homo sapiens, SK-MEL-28, 72 h, SKMEL28, skin): > 50 µM | IC50 (cancer cell lines; Homo sapiens, SK-N-AS, SKNAS, brain): > 50 µM | IC50 (cancer cell lines; Homo sapiens, SK-N-SH, SKNSH, brain): 2.44 µM | IC50 (cancer cell lines; Homo sapiens, SK-OV-3, 72 h, SKOV3, ovary): 1.64 µM | IC50 (cancer cell lines; Homo sapiens, SNB-75, 72 h, SNB75, brain): > 50 µM | IC50 (cancer cell lines; Homo sapiens, SU-DHL10, 72 h, SU-DHL-10, hematological): 3.15 µM | IC50 (cancer cell lines; Homo sapiens, SU-DHL-6, 72 h, SU-DHL-6, hematological): 4.69 µM | IC50 (cancer cell lines; Homo sapiens, SW-620, 72 h, SW620, colon): 0.91 µM | IC50 (cancer cell lines; Homo sapiens, TE-671, 72 h, TE671, muscle): 5.9 µM | IC50 (cancer cell lines; Homo sapiens, THP-1, 72 h, THP-1, hematological): 1.12 µM | IC50 (cancer cell lines; Homo sapiens, U2OS, bone): > 50 µM | IC50 (cancer cell lines; Homo sapiens, U-87 MG, U87MG, brain): 11.9 µM | IC50 (cancer cell lines; Homo sapiens, UMUC3, 72 h, UMUC3, bladder): 3.39 µM | IC50 (cancer cell lines; Homo sapiens, UO-31, 72 h, UO31, kidney): > 50 µM | IC50 (cancer cell lines; Homo sapiens, WSU-NHL, hematological): 3.53 µM | IC50 (cancer cell lines; NCI-H358M, NCIH358M, lung): > 50 µM | IC50 (cancer cell lines; PBMC, hematological): > 50 µM | IC50 (cancer cell lines; RD-ES, RDES, bone): 3.93 µM | IC50 (human LINE-1): 21 nM
SMILES: C#C[C@]1(CO)O[C@@H](n2cc(F)c(N)nc2=O)C[C@@H]1O [compound 9]

— US20230293526A1, “METHOD FOR TREATING CANCER WITH A REVERSE TRANSCRIPTASE INHIBITOR” (PrimeFour Therapeutics, Inc., priority 2020, published 2023)
